Assay results published in patent US5053424A, “2-(N-acyl)amino-6,7-dimethoxy tetralines, and pharmaceutical compositions having antihypertensive activity containing same” (Sigma-Tau Industrie Farmaceutiche Riunite S.p.A., priority 1989, dated 1991).
Structures can show the parent of a compound that is named as a salt. Where two headings read alike, the source gives them in different places.

Assays:
SHR hypertensive rats = test: Non-invasive measure of arterial pressure in genetically hypertensive rats (SHR); format: in vivo, rats (male SHR)
Protocol: (b) Non-invasive measure of arterial pressure in genetically hypertensive rats.
Male SHR rats (Charles River) of 3-4 months were used in this test. The compounds listed were dissolved in either 0.9% saline or twice distilled water and administered via the oral route or i.p. (50-100 mg/5 ml/kg).
The animals, housed in individual cages at 23° C. and 60% humidity, had free access to food and drinking water. A BP recorder (Letica) equipped with a two-way polygraph was used. The systolic and diastolic pressure and the heart rate were recorded. The animals, a few days before the test began, were accustomed to be constrained on a heating plate (at 38° C.±1° C.) for 20 minutes).
During the pre-tests, the assessments were made at time 0 (8^30 -9^30 a.m.) and after 1, 2 and 4 hours.
Every assessment was the average of 3 measures and the maximum residence time of the animal in the thermostatized chamber (for the whole test duration) was 40 minutes.
Student's "t" test was used for assessing the difference with respect to the control group and its own 0 time.

[1] = LD50 in mice (Weil's method); conditions: mouse, in vivo; intravenous route, male Albino Swiss mice
Protocol: LD50 was assessed according to the Carrol S. WEIL's method (Biometrics, pages […] (1952)) on male Albino Swiss mice weighing 22-24 g. The compounds dissolved in […] saline solution were administered via the intravenous route.

Tolerability in mice = test: Tolerability in mice; parameters: species or system mice (male albino Swiss); conditions: mouse, in vivo, read-out: TOLERABILITY dose
Protocol: Male albino Swiss mice weighing 22-24 g were used in this test.
One group of animals (4/dose) which had been kept fasting for 18 hours was orally administered the compounds dissolved in twice distilled water. The same compounds dissolved in saline at pH=7 were intravenously injected in a further group of animals which had free access to food and drinking water. All of the animals were monitored for 7 days.

Normotensive cats = test: Measure of arterial pressure in cats (hypotensive effect in normotensive cats); format: in vivo; conditions: via crural vein; for EFFECT DURATION (hypotension in normotensive cats): key: S: short; A: average; L: long
Protocol: (a) Measure of arterial pressure in cats.
Normotensive cats of either sex weighing 2.5-3.5 kgs were used in this test.
The animals fasted for 18 hours were anesthetized with Na Nembutal (30 mg/kg) and ethyl urethane (300 mg/kg i.p.). The crural vein and artery of the animals were cannulated, the former for administering the compounds, the latter for monitoring the arterial pressure. The arterial pressure was measured via a mercury gauge connected to a rotating kymograph.
The compounds were dissolved in sterile 0.9% saline and administered at physiological pH in a 0.5 ml/kg volume.

[2] = iv, e.p. (head), intravenously injected in saline pH 7, monitored 7 days
[3] = os (oral), fasted mice, monitored 7 days

SMILES	LD50 [1] [mg/kg]	MTD at 168 h (Tolerability in mice; [2]) [mg/kg]	MTD at 168 h (Tolerability in mice; [3]) [mg/kg]	HYPOTENSIVE EFFECT IN NORMOTENSIVE CATS, hypotension (Normotensive cats; dose 1-4 mg/kg) [mm Hg]	EFFECT DURATION (hypotension in normotensive cats) (Normotensive cats; dose 2 mg/kg)	further results
COc1cc2c(cc1OC)CC(NC(=O)[C@H](C)NC(=O)[C@@H](N)CC(C)C)CC2.Cl (stereo partly shown) [ST 584, 2-(N-leucylalanyl)amino-6,7-dimethoxy tetraline hydrochloride]	167	> 50	> 50			ANTIHYPERTENSIVE EFFECT IN SHR HYPERTENSIVE RATS (SHR hypertensive rats; dose "10C" [sic] mg/kg os, 1st h): -12 mm Hg; ANTIHYPERTENSIVE EFFECT IN SHR HYPERTENSIVE RATS (SHR hypertensive rats; dose "10C" [sic] mg/kg os, 2nd h): 0 mm Hg; ANTIHYPERTENSIVE EFFECT IN SHR HYPERTENSIVE RATS (SHR hypertensive rats; dose "10C" [sic] mg/kg os, 4th h): 0 mm Hg
CCN(C(=O)[C@H](C)NC(=O)[C@@H](N)Cc1c[nH]c2ccccc12)C1CCc2cc(OC)c(OC)cc2C1 (stereo partly shown) [ST 604, 2-(N-ethyl,N-tryptophylalanyl)amino-6,7-dimethoxy tetraline hydrochloride]	85	> 50	> 50	0		
COc1cc2c(cc1OC)CC(NC(=O)C(N)CCSC)CC2 (stereo not shown) [ST 581, 2-N-methionylamino-6,7-dimethoxy tetraline hydrochloride]	74	> 50	> 50	0		
CCN(C(=O)[C@H](C)NC(=O)[C@@H](N)CCSC)C1CCc2cc(OC)c(OC)cc2C1 (stereo partly shown) [ST 606, 2-(N-ethyl,N-methionylalanyl)amino-6,7-dimethoxy tetraline hydrochloride]	150	> 50	> 50		S	EFFECT DURATION (hypotension in normotensive cats) (Normotensive cats; dose 1 mg/kg): S; EFFECT DURATION (hypotension in normotensive cats) (Normotensive cats; dose 4 mg/kg): S
COc1cc2c(cc1OC)CC(NC(=O)CN)CC2 (stereo not shown) [ST 582, 2-N-glycylamino-6,7-dimethoxy tetraline hydrochloride]	72.3	> 50	> 50			ANTIHYPERTENSIVE EFFECT IN SHR HYPERTENSIVE RATS (SHR hypertensive rats; 50 mg/kg i.p., 1st h): -37 mm Hg; ANTIHYPERTENSIVE EFFECT IN SHR HYPERTENSIVE RATS (SHR hypertensive rats; 50 mg/kg i.p., 2nd h): -27 mm Hg; ANTIHYPERTENSIVE EFFECT IN SHR HYPERTENSIVE RATS (SHR hypertensive rats; 50 mg/kg i.p., 4th h): 0 mm Hg; EFFECT DURATION (hypotension in normotensive cats) (Normotensive cats; dose 10 mg/kg): S
COc1cc2c(cc1OC)CC(NC(=O)C(N)Cc1ccc(O)cc1)CC2 (stereo not shown) [ST 589, 2-N-tyrosyl-6,7-dimethoxy tetraline hydrochloride]	218	> 50	> 50		S	ANTIHYPERTENSIVE EFFECT IN SHR HYPERTENSIVE RATS (SHR hypertensive rats; 100 mg/kg os, 1st h): -26 mm Hg; ANTIHYPERTENSIVE EFFECT IN SHR HYPERTENSIVE RATS (SHR hypertensive rats; 100 mg/kg os, 2nd h): -20 mm Hg; ANTIHYPERTENSIVE EFFECT IN SHR HYPERTENSIVE RATS (SHR hypertensive rats; 100 mg/kg os, 4th h): 0 mm Hg; EFFECT DURATION (hypotension in normotensive cats) (Normotensive cats; dose 1 mg/kg): S
COc1cc2c(cc1OC)CC(NC(=O)[C@H](C)NC(=O)[C@@H](N)Cc1ccc(O)cc1)CC2.Cl (stereo partly shown) [ST 605, 2-(N-tyrosylalanyl)amino-6,7-dimethoxy tetraline hydrochloride]	72.3	> 50	> 50		S	ANTIHYPERTENSIVE EFFECT IN SHR HYPERTENSIVE RATS (SHR hypertensive rats; 100 mg/kg e.p., 1st h): -40 mm Hg; ANTIHYPERTENSIVE EFFECT IN SHR HYPERTENSIVE RATS (SHR hypertensive rats; 100 mg/kg e.p., 2nd h): -38 mm Hg; ANTIHYPERTENSIVE EFFECT IN SHR HYPERTENSIVE RATS (SHR hypertensive rats; 100 mg/kg e.p., 4th h): -29 mm Hg; ANTIHYPERTENSIVE EFFECT IN SHR HYPERTENSIVE RATS (SHR hypertensive rats; 100 mg/kg os, single administration (*), 2nd h): -28 mm Hg; ANTIHYPERTENSIVE EFFECT IN SHR HYPERTENSIVE RATS (SHR hypertensive rats; 100 mg/kg os, single administration (*), 4th h): -31 mm Hg; ANTIHYPERTENSIVE EFFECT IN SHR HYPERTENSIVE RATS (SHR hypertensive rats; repeated administration (5 days) (**), dose column "--" below 100 os, 2nd h): -35 mm Hg; ANTIHYPERTENSIVE EFFECT IN SHR HYPERTENSIVE RATS (SHR hypertensive rats; repeated administration (5 days) (**), dose column "--" below 100 os, 4th h): -17 mm Hg; HYPOTENSIVE EFFECT IN NORMOTENSIVE CATS, hypotension (Normotensive cats; dose 1 mg/kg): 0 mm Hg
COc1cc2c(cc1OC)CC(NC(=O)[C@H](C)NC(=O)[C@@H](N)Cc1c[nH]c3ccccc13)CC2 (stereo partly shown) [ST 585, 2-(N-tryptophylalanyl)amino-6,7-dimethoxy tetraline hydrochloride]	115	> 50	> 50			HYPOTENSIVE EFFECT IN NORMOTENSIVE CATS, hypotension (Normotensive cats; dose 4 mg/kg): 0 mm Hg; EFFECT DURATION (hypotension in normotensive cats) (Normotensive cats; dose 10 mg/kg): S
COc1cc2c(cc1OC)CC(NC(=O)C(N)Cc1c[nH]c3ccccc13)CC2 (stereo not shown) [ST 580, 2-N-tryptophylamino-6,7-dimethoxy tetraline hydrochloride]	66.7	> 50	> 50	0		
COc1cc2c(cc1OC)CC(NC(=O)[C@H](C)NC(=O)[C@@H](N)CCSC)CC2.Cl (stereo partly shown) [ST 586, 2-(N-methionylalanyl)amino-6,7-dimethoxy tetraline hydrochloride]	229	> 50	> 50			HYPOTENSIVE EFFECT IN NORMOTENSIVE CATS, hypotension (Normotensive cats; dose 2 mg/kg): 0 mm Hg; EFFECT DURATION (hypotension in normotensive cats) (Normotensive cats; dose 4 mg/kg): S
